From patent US6369109B1, “Betulinic acid and derivatives thereof useful for the treatment of neuroectodermal tumor” (Deutsches Krebsforschungszentrum Stiftung des Offentlichen …, priority 1998, dated 2002)

Columns and labels:
[1] = tested on: doxorubicin-resistant SH-EP^DoxoR cells; assay: Specific apoptosis in resistant cells, FACS of propidium iodide-stained nuclei; type: cell-based, human; conditions: 10 μg/ml betulinic acid or 0.5 μg/ml doxorubicin, 72 h; FIG. 6A
Excerpt: (§1) Neuroblastoma (SH-EP, IMR-32, Kelly, and LAN-5, kindly provided by Professor M. Schwab, German Cancer Research Center, Heidelberg, Germany), medulloblastoma cells (Daoy, kindly provided by Dr. T. Pietsch, Department of Neuropathology, University of Bonn Medical Center, Bonn, Germany), Ewing's sarcoma cells (A17/95, kindly provided by Dr. U. Anderer, Institute of Pathology, Humboldt University, Berlin, Germany), melanoma (A-378), breast carcinoma (MCF-71), colon carcinoma (HT-29), small cell lung carcinoma (H-126), renal cell carcinoma (KTCTL-26, kindly provided by H. Lörke, German Cancer Research Center, Heidelberg, Germany) and T-cell leukemia (CEM) cells were cultured in RPMI 1640 (Life Technologies, Inc., Eggenstein, Germany) supplemented with 10% heat-inactivated fetal bovin serum (FCS) from Conco. […]
(§2) Quantification of DNA fragmentation was performed by FACS analysis of propidium iodide stained nuclei as described in Nicoletti et al, 1991, J. Immunol. […] Cells were analyzed for DNA content by flow. cytometry (FACScan, Becton Dickinson, Heidelberg, Germany) using CELLQuest software. […] Cells were analyzed by flow cytometry (FAC-Scan. Becton Dickinson) using CELLQuest software.
(§3) SH-EP neuroblastoma cells (▪). […] Specific apoptosis was determined and calculated as described in the legend to FIG. 1A. […]

[2] = tested on: CD95-resistant SH-EP^CD95R cells; assay: as above; type: cell-based, human; conditions: 10 μg/ml betulinic acid or 0.5 μg/ml doxorubicin, 72 h; FIG. 6A
Excerpt: as §1, §2, §3

COc1cccc2c1C(=O)c1c(O)c3c(c(O)c1C2=O)C[C@@](O)(C(=O)CO)C[C@@H]3O[C@H]1C[C@H](N)[C@H](O)[C@H](C)O1 [doxorubicin]
response of doxorubicin-resistant cells (specific apoptosis) [1]: partially resistant to doxorubicin | response of anti-CD95-resistant cells (specific apoptosis) [2]: partially resistant to doxorubicin
